The text below walks through data of patent US20080292619A1, “Pharmaceutical Composition Containing Meltrin Antagonist” (MOCHIDA PHARMACEUTICAL CO., LTD., priority 2004, published 2008).

The data set concerns human meltrin α RNA. The experiment in a line: Suppression of human meltrin α expression by antisense compound in RD cell (real time PCR). The following applies: RD cell, corrected by GAPDH. It counts as cell-based. The essentials: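 RD cells transfected with heat-denatured antisense oligodeoxynucleotide plus Lipofectin in Opti-MEM for 4 h at 37° C, then cultured 18 h. Meltrin α RNA quantified by TaqMan RT-PCR against plasmid standard curve, GAPDH-corrected; suppression vs untreated cells, rated +/++/+++ for ≥30/50/70%.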
In general terms: Quantitative PCR measures a nucleic acid by following its amplification.

In the oligonucleotide strings, read from the 5' end, every base follows the letter of its sugar. An asterisk marks phosphorothioate; unmarked linkages are phosphodiester. Other units and linkages are bracketed, terminal groups are in braces. A string of capitals states the bases alone. d = 2'-deoxy (DNA)

On to “H152: cttctcacttaatataggcg (dC*dT*dT*dC*dT*dC*dA*dC*dT*dT*dA*dA*dT*dA*dT*dA*dG*dG*dC*dG; antisense)”, for which the “suppression rate of expression, 200 nM” value is “+ (“+” when the suppression rate was at least 30%)”. On to “H129: gggtggccgggaagggcgca (GGGTGGCCGGGAAGGGCGCA; antisense; DNA, all phosphorothioate, methylation of C not given here)”, for which the “suppression rate of expression, 200 nM” value is listed as “++ (“++” when the suppression rate was at least 50%)”.

As to “H070: ctgtccagtgtgtcatgatt (dC*dT*dG*dT*dC*dC*dA*dG*dT*dG*dT*dG*dT*dC*dA*dT*dG*dA*dT*dT; antisense)”, the “suppression rate of expression, 200 nM” value is “+ (“+” when the suppression rate was at least 30%)”. “H144 + 15: cagaggatctgcaggcagag (CAGAGGATCTGCAGGCAGAG; antisense; DNA, all phosphorothioate, methylation of C not given here)”: the “suppression rate of expression, 50 nM” value is “+ (“+” when the suppression rate was at least 30%)”. Consider “H144 + 11: ggatctgcaggcagaggctt (GGATCTGCAGGCAGAGGCTT; antisense; DNA, all phosphorothioate, methylation of C not given here)”, for which the “suppression rate of expression, 50 nM” value was “++ (“++” when the suppression rate was at least 50%)”. On to “H008: gccgccgctgagctcttcta (GCCGCCGCTGAGCTCTTCTA; antisense; DNA, all phosphorothioate, methylation of C not given here)”, for which the “suppression rate of expression, 50 nM” value is reported as “++ (“++” when the suppression rate was at least 50%)” and the “suppression rate of expression, 200 nM” value was “++ (“++” when the suppression rate was at least 50%)”.

As for “H145: ctggccagaggatctgcagg (CTGGCCAGAGGATCTGCAGG; antisense; DNA, all phosphorothioate, methylation of C not given here)”, the “suppression rate of expression, 50 nM” value is on record as “+++ (“+++” when the suppression rate was at least 70%)” and the “suppression rate of expression, 200 nM” value is “+++ (“+++” when the suppression rate was at least 70%)”. As to “H133 + 3: ttcggtgggtaggaatctgg (TTCGGTGGGTAGGAATCTGG; antisense; DNA, all phosphorothioate, methylation of C not given here)”, the “suppression rate of expression, 50 nM” value is recorded as “+ (“+” when the suppression rate was at least 30%)”.

Regarding “H132: cttcctcatcaggccttttc (CTTCCTCATCAGGCCTTTTC; antisense; DNA, all phosphorothioate, methylation of C not given here)”, the “suppression rate of expression, 200 nM” value is “++ (“++” when the suppression rate was at least 50%)”.

As to “H077: ggcacacccccattcctttc (dG*dG*dC*dA*dC*dA*dC*dC*dC*dC*dC*dA*dT*dT*dC*dC*dT*dT*dT*dC)”, the “suppression rate of expression, 200 nM” value was “+ (“+” when the suppression rate was at least 30%)”. Still for that read-out and setting: the entry for “H188: ccccttccaaacatgctcac (dC*dC*dC*dC*dT*dT*dC*dC*dA*dA*dA*dC*dA*dT*dG*dC*dT*dC*dA*dC; antisense)” is “+ (“+” when the suppression rate was at least 30%)”.

With “H132 + 15: gtaggaatctggcggcttcc (GTAGGAATCTGGCGGCTTCC; antisense; DNA, all phosphorothioate, methylation of C not given here)”, the “suppression rate of expression, 50 nM” value is recorded as “+ (“+” when the suppression rate was at least 30%)”.

With “H138: cactcgctgagttgactggg (CACTCGCTGAGTTGACTGGG; antisense; DNA, all phosphorothioate, methylation of C not given here)”, the “suppression rate of expression, 50 nM” value is “++ (“++” when the suppression rate was at least 50%)” and the “suppression rate of expression, 200 nM” value is listed as “+++ (“+++” when the suppression rate was at least 70%)”.

Regarding “H010: cctcggcgagtcagctccgg (CCTCGGCGAGTCAGCTCCGG; antisense; DNA, all phosphorothioate, methylation of C not given here)”, the “suppression rate of expression, 50 nM” value is listed as “++ (“++” when the suppression rate was at least 50%)” and the “suppression rate of expression, 200 nM” value is “++ (“++” when the suppression rate was at least 50%)”.
